IC50 data for 10 molecules are collected here from patent publication US9115127B2 (AMGEN INC., priority 2010, dated 2015).

Where only a bound is given, the exact number is not on record here.

In one assay the target is T1, wild-type human ALK (cytoplasmic domain, amino acids 1058-1620, N-terminal GST fusion) (Homo sapiens, UniProt Q9UM73).
T1 construct: The cytoplasmic domain (amino acids 1058-1620) of wild-type human ALK; GST (N); made in house; host or cells: SF9 insect cells
T1 sequence (Q9UM73 1058-1620): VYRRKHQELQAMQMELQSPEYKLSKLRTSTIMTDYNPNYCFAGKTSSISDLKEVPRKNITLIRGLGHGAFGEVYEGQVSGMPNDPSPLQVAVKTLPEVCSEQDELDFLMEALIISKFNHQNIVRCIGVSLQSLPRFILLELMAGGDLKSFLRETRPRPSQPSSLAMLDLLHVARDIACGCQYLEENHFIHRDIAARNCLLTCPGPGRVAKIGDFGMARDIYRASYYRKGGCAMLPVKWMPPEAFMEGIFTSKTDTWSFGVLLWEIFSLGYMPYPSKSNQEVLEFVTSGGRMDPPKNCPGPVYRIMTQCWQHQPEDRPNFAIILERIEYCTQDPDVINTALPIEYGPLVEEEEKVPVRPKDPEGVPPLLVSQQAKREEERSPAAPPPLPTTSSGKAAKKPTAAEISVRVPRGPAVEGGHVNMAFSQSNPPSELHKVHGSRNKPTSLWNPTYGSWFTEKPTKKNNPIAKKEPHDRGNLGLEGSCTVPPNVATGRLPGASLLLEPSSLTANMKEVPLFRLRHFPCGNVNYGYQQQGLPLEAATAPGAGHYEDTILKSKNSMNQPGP
Nature of the assay: ALK Inhibition in Enzyme Assay (Lance TR-FRET kinase assay). It counts as biochemical.
Conditions: not given
The procedure:
ALK Inhibition in Enzyme Assay
Kinase activity of the purified protein was assessed using a Lance® TR-FRET assay. […] The reaction was allowed to proceed for 90 minutes at room temperature and was then terminated with 20 mM EDTA in 50 mM Tris (pH 7.5), 100 mM NaCl, 0.05% BSA, and 0.1% Tween-20. Phosphorylation of the peptide substrate was detected using the Lance® detection reagents streptavidin-allophycocyanin (SA-APC) and Eu-W1024 anti-phosphotyrosine antibody (PT66) from Perkin Elmer Life Sciences (Waltham, Mass.). The plates were read on a RUBY star plate reader (BMG LABTECH, Cary, N.C.) with an excitation wavelength of 320 nm.
As to `CC(C)NC(=O)[C@H]1CC[C@@H](n2/c(=N/C(=O)c3ccc(F)cc3)[nH]c3ccc(CN4CCC(S(=O)(=O)O)CC4)cc32)CC1` [Example 181, 1-(((E)-2-(4-Fluorobenzoylimino)-3-(cis-4-(isopropylcarbamoyl)-cyclohexyl)-2,3-dihydro-1H-benzo[d]imidazol-5-yl)methyl)piperidine-4-sulfonic acid], the IC50 was less than 50 nM.

Molecule `O=C(/N=c1\[nH]c2ccc(CN3CCCCC3)cc2n1[C@H]1CC[C@@H](C(=O)NCC2CC2)CC1)c1ccc(F)cc1` [Example 32, (E)-N-(1-(cis-4-(Cyclopropylmethylcarbamoyl)cyclohexyl)-6-(piperidin-1-ylmethyl)-1H-benzo[d]imidazol-2(3H)-ylidene)-4-fluorobenzamide] returned an IC50 of less than 50 nM. The same measure, in the same setting: to `COc1cc(F)cc(C(=O)/N=c2\[nH]c3cnc(OCCN4CCCCC4)cc3n2[C@H]2CC[C@@H](C(=O)NC(C)C)CC2)c1` [Example 117, (E)-3-Fluoro-N-(1-(cis-4-(isopropylcarbamoyl)cyclohexyl)-6-(2-(piperidin-1-yl)ethoxy)-1H-imidazo[4,5-c]pyridin-2(3H)-ylidene)-5-methoxybenzamide] belongs 50 to 100 nM. Same read-out and setting: next, `CC(C)(O)C1CCN(Cc2ccc3[nH]/c(=N\C(=O)c4ccc(F)cc4)n([C@H]4CC[C@@H](C(=O)N5CCNCC5)CC4)c3c2)CC1` [Example 211, (E)-4-Fluoro-N-(6-((4-(2-hydroxypropan-2-yl)piperidin-1-yl)methyl)-1-(cis-4-(piperazine-1-carbonyl)cyclohexyl)-1H-benzo[d]imidazol-2(3H)-ylidene)benzamide]: less than 50 nM.

Molecule `NC(=O)[C@H]1CC[C@@H](n2/c(=N/C(=O)c3ccc(F)cc3)[nH]c3ccc(CN4CCOCC4)cc32)CC1` [Example 205, (E)-N-(1-(cis-4-Carbamoylcyclohexyl)-6-(morpholinomethyl)-1H-benzo[d]imidazol-2(3H)-ylidene)-4-fluorobenzamide] yielded an IC50 of less than 50 nM.

The molecule `CC(C)NC(=O)[C@H]1CC[C@@H](n2/c(=N/C(=O)c3ccc(F)cc3)[nH]c3cnc(N4CCN(S(C)(=O)=O)CC4)cc32)CC1` [Example 224, (E)-4-Fluoro-N-(1-(cis-4-(isopropylcarbamoyl)cyclohexyl)-6-(4-(methylsulfonyl)-piperazin-1-yl)-1H-imidazo[4,5-c]pyridin-2(3H)-ylidene)benzamide] had an IC50 of less than 50 nM.

As for `CC(C)(CO)NC(=O)[C@H]1CC[C@@H](n2/c(=N/C(=O)c3ccc(F)cc3)[nH]c3ccc(CN4CCOCC4)cc32)CC1` [Example 199, (E)-4-Fluoro-N-(1-(cis-4-(1-hydroxy-2-methylpropan-2-ylcarbamoyl)cyclohexyl)-6-(morpholinomethyl)-1H-benzo[d]imidazol-2(3H)-ylidene)benzamide], the half-inhibitory concentration (IC50) was less than 50 nM.

`CC(C)NC(=O)[C@H]1CC[C@@H](n2/c(=N/C(=O)c3ccc(F)cc3)[nH]c3cnc(N4CCOCC4)cc32)CC1` [Example 222, (E)-4-Fluoro-N-(1-(cis-4-(isopropylcarbamoyl)cyclohexyl)-6-morpholino-1H-imidazo[4,5-c]pyridin-2(3H)-ylidene)benzamide] had an IC50 of less than 50 nM. On the same count and under the same terms, next, `CCOC(=O)[C@H]1CC[C@@H](n2c(NC(=O)c3ccc(F)cc3)nc3ccc(CO)cc32)CC1` [Example 6, cis-Ethyl 4-(2-(4-fluorobenzamido)-6-(hydroxymethyl)-1H-benzo[D]imidazol-1-yl)cyclohexanecarboxylate]: less than 50 nM.

The same assay, now with this note: 2 nM enzyme, ATP 40 μM (Km apparent), 90 minutes at room temperature; mean of three replicates.
Consider `CC(C)NC(=O)[C@H]1CC[C@@H](n2/c(=N/C(=O)c3ccc(F)c(Cl)c3)[nH]c3cnc(OCCN4CCCCC4)cc32)CC1` [Example 118, (E)-3-Chloro-4-fluoro-N-(1-(cis-4-(isopropylcarbamoyl)cyclohexyl)-6-(2-(piperidin-1-yl)ethoxy)-1H-imidazo[4,5-c]pyridin-2(3H)-ylidene)benzamide], for which the IC50 is less than 50 nM.
